Source: patent publication US20220024970A1, “COMPOUNDS WITH HIV MATURATION INHIBITORY ACTIVITY” (VIIV HEALTHCARE UK (NO. 4) LIMITED, priority 2018, published 2022)
Structures can show the parent of a compound that is named as a salt.

How the values were obtained:
Format in all cases: physicochemical
[1] = Water vapor sorption (DVS) at 25° C.
Protocol: Water vapor sorption experiments were performed using a Surface Measurement System DVS Advantage at 25° C. The Bis-HCl salt of Compound A reversibly absorbed approximately 7% weight per weight of water between 0% and 90% relative humidity at 25° C. […] Upon desorption the conversions were reversible. The Form 1 crystalline mesylate salt of Compound A reversibly absorbed approximately 1.6% weight per weight of water between 0% and 90% relative humidity at 25° C.

[2] = Thermal behaviour during heating (DSC)
Protocol: Differential Scanning calorimetry (DSC) data were acquired on a TA Instruments Q20 DSC. The method parameters were: Heat Program: 30° C. to 300° C. using a 10° C. per minute heating rate, under a nitrogen gas flow.

[3] = Solubility in simulated intestinal fluids at controlled ambient room temperature; conditions: for Solubility in FaSSIF and FeSSIF (in words): mesylate compared to the bis-HCl salt
[4] = Fasted State Simulated Intestinal Fluid (FaSSif) pH 6.5, controlled ambient room temperature
[5] = Fed State Simulated Intestinal Fluid (FeSSif) pH 6.5, controlled ambient room temperature

Solid form change upon moisture sorption ([1]; ambient humidity conditions)	Water reversibly absorbed ([1]; between 0% and 90% relative humidity at 25° C.)	Hygroscopicity (in words) ([1]; compared to the bis-HCl salt, ambient humidity conditions)	Thermal loss of counter-ion during heating [2]	Solubility in FaSSIF and FeSSIF (in words) ([3]; listed as Form 1 of the mesylate salt of Compound A)	Solubility of Specified Version [3, 4]	Solubility of Specified Version [3, 5]	Solubility in FaSSIF and FeSSIF (in words) ([3]; listed as parent free base of Compound A)	Structure (SMILES)
no significant form change	approximately 1.6 % weight per weight	lower hygroscopicity	does not show this behavior	greater solubility	100 µg/mL	600 µg/mL	–	C=C(C)[C@@H]1CC[C@]2(NCCN3CCS(=O)(=O)CC3)CC[C@]3(C)[C@H](CC[C@@H]4[C@@]5(C)CC=C(C6=CC[C@@](CF)(C(=O)O)CC6)C(C)(C)[C@@H]5CC[C@]43C)[C@@H]12 [Form 1 of Mesylate salt of Compound A]
–	–	–	–	–	Less than 0.001 mg/mL	Less than 0.001 mg/mL	poor solubility	C=C(C)[C@@H]1CC[C@]2(NCCN3CCS(=O)(=O)CC3)CC[C@]3(C)[C@H](CC[C@@H]4[C@@]5(C)CC=C(C6=CC[C@@](CF)(C(=O)O)CC6)C(C)(C)[C@@H]5CC[C@]43C)[C@@H]12 [Parent Compound A, (1R)-4-[(1R,3aS,5aR,5bR,7aR,11aS,11bR,13aR,13bR)-3a-{[2-(1,1-dioxido-4-thiomorpholinyl)ethyl]amino}-5a,5b,8,8,11a-pentamethyl-1-(1-propen-2-yl)-2,3,3a,4,5,5a,5b,6,7,7a,8,11,11a,11b,12,13,13a,13b-octadecahydro-1H-cyclopenta[a]chrysen-9-yl]-1-(fluoromethyl)-3-cyclohexene-1-carboxylic acid]
